Results as given in US20140221361A1, “C-19 MODIFIED TRITERPENOIDS WITH HIV MATURATION INHIBITORY ACTIVITY” (priority 2013, published 2014).

System: recombinant NL4-3 virus (Renilla luciferase in nef, Gag P373S)
Test: HIV cell culture assay (luciferase reporter, MT-2 cells)
Format: cell-based, HIV-1
Conditions: Renilla, NL43, MT-2 cells infected for 4-5 days with NLRluc recombinants; luciferase activity; serial dilutions of inhibitor
Description: MT-2 cells and 293T cells were obtained from the NIH AIDS Research and Reference Reagent Program. MT-2 cells were propagated in RPMI 1640 media supplemented with 10% heat inactivated fetal bovine serum, […]. The 293T cells were propagated in DMEM media supplemented with 10% heat inactivated fetal bovine serum (FBS), 100 units/ml penicillin G and 100 µg/ml streptomycin. The proviral DNA clone of NL4-3 was obtained from the NIH AIDS Research and Reference Reagent Program. A recombinant NL4-3 virus, in which a section of the nef gene from NL4-3 was replaced with the Renilla luciferase gene, was used as a reference virus. In addition, residue Gag P373 was converted to P373S. Briefly, the recombinant virus was prepared by transfection of the altered proviral clone of NL4-3. Transfections were performed in 293T cells using LipofectAMINE PLUS from Invitrogen (Carlsbad, Calif.), according to manufacturer's instruction. The virus was titered in MT-2 cells using luciferase enzyme activity as a marker. Luciferase was quantitated using the Dual Luciferase kit from Promega (Madison, Wis.), with modifications to the manufacturer's protocol. The diluted Passive Lysis solution was pre-mixed with the re-suspended Luciferase Assay Reagent and the re-suspended Stop & Glo Substrate (2:1:1 ratio). Fifty (50) μL of the mixture was added to each aspirated well on assay plates and luciferase activity was measured immediately on a Wallac TriLux (Perkin-Elmer). Antiviral activities of inhibitors toward the recombinant virus were quantified by measuring luciferase activity in cells infected for 4-5 days with NLRluc recombinants in the presence serial dilutions of the inhibitor.

Row | SMILES | EC50
1 | C=C(COCCN1CCOCC1)[C@@H]1CC[C@]2(C(=O)O)CC[C@]3(C)[C@H](CC[C@@H]4[C@@]5(C)CC=C(c6ccc(C(=O)O)cc6)C(C)(C)[C@@H]5CC[C@]43C)[C@@H]12 [Example 11, (1R,3aS,5aR,5bR,7aR,11aS,11bR,13aR,13bS)-9-(4-carboxyphenyl)-5a,5b,8,8,11a-pentamethyl-1-(3-(2-morpholinoethoxy)prop-1-en-2-yl)-2,3,3a,4,5,5a,5b,6,7,7a,8,11,11a,11b,12,13,13a,13b-octadecahydro-1H-cyclopenta[a]chrysene-3a-carboxylic acid] | 20 nM
2 | C=C(COCCN1CCOCC1)[C@@H]1CC[C@]2(C(=O)NCCC(=O)O)CC[C@]3(C)[C@H](CC[C@@H]4[C@@]5(C)CC=C(c6ccc(C(=O)O)cc6)C(C)(C)[C@@H]5CC[C@]43C)[C@@H]12 [Example 12, 4-((1R,3aS,5aR,5bR,7aR,11aS,11bR,13aR,13bS)-3a-(2-carboxyethylcarbamoyl)-5a,5b,8,8,11a-pentamethyl-1-(3-(2-morpholinoethoxy)prop-1-en-2-yl)-2,3,3a,4,5,5a,5b,6,7,7a,8,11,11a,11b,12,13,13a,13b-octadecahydro-1H-cyclopenta[a]chrysen-9-yl)benzoic acid] | 140 nM
3 | C=C(COCCN1CCOCC1)[C@@H]1CC[C@]2(C(=O)NCCNCCO)CC[C@]3(C)[C@H](CC[C@@H]4[C@@]5(C)CC=C(c6ccc(C(=O)O)cc6)C(C)(C)[C@@H]5CC[C@]43C)[C@@H]12 [Example 13, 4-((1R,3aS,5aR,5bR,7aR,11aS,11bR,13aR,13bS)-3a-(2-(2-hydroxyethylamino)ethylcarbamoyl)-5a,5b,8,8,11a-pentamethyl-1-(3-(2-morpholinoethoxy)prop-1-en-2-yl)-2,3,3a,4,5,5a,5b,6,7,7a,8,11,11a,11b,12,13,13a,13b-octadecahydro-1H-cyclopenta[a]chrysen-9-yl)benzoic acid] | 1.97 nM
4 | C=C(COCCN1CCOCC1)[C@@H]1CC[C@]2(C(=O)NCCN(C)C)CC[C@]3(C)[C@H](CC[C@@H]4[C@@]5(C)CC=C(c6ccc(C(=O)O)cc6)C(C)(C)[C@@H]5CC[C@]43C)[C@@H]12 [Example 14, 4-((1R,3aS,5aR,5bR,7aR,11aS,11bR,13aR,13bS)-3a-(2-(dimethylamino)ethylcarbamoyl)-5a,5b,8,8,11a-pentamethyl-1-(3-(2-morpholinoethoxy)prop-1-en-2-yl)-2,3,3a,4,5,5a,5b,6,7,7a,8,11,11a,11b,12,13,13a,13b-octadecahydro-1H-cyclopenta[a]chrysen-9-yl)benzoic acid] | 0.72 nM
5 | C=C(COCCN1CCOCC1)[C@@H]1CC[C@]2(C(=O)NCCCN3CCCC3=O)CC[C@]3(C)[C@H](CC[C@@H]4[C@@]5(C)CC=C(c6ccc(C(=O)O)cc6)C(C)(C)[C@@H]5CC[C@]43C)[C@@H]12 [Example 15, 4-((1R,3aS,5aR,5bR,7aR,11aS,11bR,13aR,13bS)-5a,5b,8,8,11a-pentamethyl-1-(3-(2-morpholinoethoxy)prop-1-en-2-yl)-3a-(3-(2-oxopyrrolidin-1-yl)propylcarbamoyl)-2,3,3a,4,5,5a,5b,6,7,7a,8,11,11a,11b,12,13,13a,13b-octadecahydro-1H-cyclopenta[a]chrysen-9-yl)benzoic acid] | 1.83 nM
6 | C=C(COCCN1CCOCC1)[C@@H]1CC[C@]2(C(=O)NCCCn3ccnc3)CC[C@]3(C)[C@H](CC[C@@H]4[C@@]5(C)CC=C(c6ccc(C(=O)O)cc6)C(C)(C)[C@@H]5CC[C@]43C)[C@@H]12 [Example 16, 4-((1R,3aS,5aR,5bR,7aR,11aS,11bR,13aR,13bS)-3a-(3-(1H-imidazol-1-yl)propylcarbamoyl)-5a,5b,8,8,11a-pentamethyl-1-(3-(2-morpholinoethoxy)prop-1-en-2-yl)-2,3,3a,4,5,5a,5b,6,7,7a,8,11,11a,11b,12,13,13a,13b-octadecahydro-1H-cyclopenta[a]chrysen-9-yl)benzoic acid] | 2.48 nM
7 | C=C(COCCN1CCOCC1)[C@@H]1CC[C@]2(C(=O)NCCNCC(=O)O)CC[C@]3(C)[C@H](CC[C@@H]4[C@@]5(C)CC=C(c6ccc(C(=O)O)cc6)C(C)(C)[C@@H]5CC[C@]43C)[C@@H]12 [Example 17, 4-((1R,3aS,5aR,5bR,7aR,11aS,11bR,13aR,13bS)-3a-(2-(carboxymethylamino)ethylcarbamoyl)-5a,5b,8,8,11a-pentamethyl-1-(3-(2-morpholinoethoxy)prop-1-en-2-yl)-2,3,3a,4,5,5a,5b,6,7,7a,8,11,11a,11b,12,13,13a,13b-octadecahydro-1H-cyclopenta[a]chrysen-9-yl)benzoic acid] | 80 nM
8 | C=C(CN(C)C(=O)CCC(=O)OC)[C@@H]1CC[C@]2(C(=O)NCCN(C)C)CC[C@]3(C)[C@H](CC[C@@H]4[C@@]5(C)CC=C(c6ccc(C(=O)O)cc6)C(C)(C)[C@@H]5CC[C@]43C)[C@@H]12 [Example 18, 4-((1R,3aS,5aR,5bR,7aR,11aS,11bR,13aR,13bS)-3a-(2-(dimethylamino)ethylcarbamoyl)-1-(3-(4-methoxy-N-methyl-4-oxobutanamido)prop-1-en-2-yl)-5a,5b,8,8,11a-pentamethyl-2,3,3a,4,5,5a,5b,6,7,7a,8,11,11a,11b,12,13,13a,13b-octadecahydro-1H-cyclopenta[a]chrysen-9-yl)benzoic acid] | 1.87 nM
9 | CC(=CC(=O)O)[C@@H]1CC[C@]2(C(=O)NCCN(C)C)CC[C@]3(C)[C@H](CC[C@@H]4[C@@]5(C)CC[C@H](c6ccc(C(=O)O)cc6)C(C)(C)[C@@H]5CC[C@]43C)[C@@H]12 [Example 19, 4-((1R,3aS,5aR,5bR,7aS,9S,11aS,11bR,13aR,13bR)-1-(1-carboxyprop-1-en-2-yl)-3a-((2-(dimethylamino)ethyl)carbamoyl)-5a,5b,8,8,11a-pentamethylicosahydro-1H-cyclopenta[a]chrysen-9-yl)benzoic acid] | 20 nM
10 | CC(C)(O)[C@@H]1CC[C@]2(NCCN3CCS(=O)(=O)CC3)CC[C@]3(C)[C@H](CC[C@@H]4[C@@]5(C)CC=C(C6=CCC(C(=O)O)CC6)C(C)(C)[C@@H]5CC[C@]43C)[C@@H]12 (stereo partly drawn) [Example 22, 4-((1R,3aS,5aR,5bR,7aR,11aS,11bR,13aR,13bS)-3a-((2-(1,1-dioxidothiomorpholino)ethyl)amino)-1-(2-hydroxypropan-2-yl)-5a,5b,8,8,11a-pentamethyl-2,3,3a,4,5,5a,5b,6,7,7a,8,11,11a,11b,12,13,13a,13b-octadecahydro-1H-cyclopenta[a]chrysen-9-yl)cyclohex-3-enecarboxylic acid] | 0.519 nM
11 | CC(C)(O)[C@@H]1CC[C@]2(NCCN3CC4CC3CO4)CC[C@]3(C)[C@H](CC[C@@H]4[C@@]5(C)CC=C(C6=CCC(C(=O)O)CC6)C(C)(C)[C@@H]5CC[C@]43C)[C@@H]12 (stereo partly drawn) [Example 23, 4-((1R,3aS,5aR,5bR,7aR,11aS,11bR,13aR,13bS)-3a-((2-(2-oxa-5-azabicyclo[2.2.1]heptan-5-yl)ethyl)amino)-1-(2-hydroxypropan-2-yl)-5a,5b,8,8,11a-pentamethyl-2,3,3a,4,5,5a,5b,6,7,7a,8,11,11a,11b,12,13,13a,13b-octadecahydro-1H-cyclopenta[a]chrysen-9-yl)cyclohex-3-enecarboxylic acid] | 0.779 nM
12 | C=C(CO)[C@@H]1CC[C@]2(NC(=O)OC(C)(C)C)CC[C@]3(C)[C@H](CC[C@@H]4[C@@]5(C)CC=C(c6ccc(C(=O)O)c(F)c6)C(C)(C)[C@@H]5CC[C@]43C)[C@@H]12 [Example A1, 4-((1R,3aS,5aR,5bR,7aR,11aS,11bR,13aR,13bS)-3a-((tert-butoxycarbonyl)amino)-1-(3-hydroxyprop-1-en-2-yl)-5a,5b,8,8,11a-pentamethyl-2,3,3a,4,5,5a,5b,6,7,7a,8,11,11a,11b,12,13,13a,13b-octadecahydro-1H-cyclopenta[a]chrysen-9-yl)-2-fluorobenzoic acid] | 20 nM
13 | C=C(CO)[C@@H]1CC[C@]2(N)CC[C@]3(C)[C@H](CC[C@@H]4[C@@]5(C)CC=C(c6ccc(C(=O)O)c(F)c6)C(C)(C)[C@@H]5CC[C@]43C)[C@@H]12 [Example A2] | 10 nM
14 | CC1([C@@H]2CC[C@]3(NCCN4CCS(=O)(=O)CC4)CC[C@]4(C)[C@H](CC[C@@H]5[C@@]6(C)CC=C(c7ccc(C(=O)O)c(F)c7)C(C)(C)[C@@H]6CC[C@]54C)[C@@H]23)CO1 (stereo partly drawn) [Example A3, 4-((1R,3aS,5aR,5bR,7aR,11aS,11bR,13aR,13bS)-3a-((2-(1,1-dioxidothiomorpholino)ethyl)amino)-5a,5b,8,8,11a-pentamethyl-1-(2-methyloxiran-2-yl)-2,3,3a,4,5,5a,5b,6,7,7a,8,11,11a,11b,12,13,13a,13b-octadecahydro-1H-cyclopenta[a]chrysen-9-yl)-2-fluorobenzoic acid] | 10 nM
